{
  "source": "patent US4795645A",
  "about": "“Sustained release tablets of theophylline” (Yissum Research and Development, priority 1986, dated 1989)",
  "origin": "cited, not measured here",
  "details": "from oral solutions and plain uncoated tablets",
  "data": [
    {"smiles": "Cn1c(=O)c2[nH]cnc2n(C)c1=O", "note": "[Theophylline, theophylline]", "values": [
      {"measurement": "absorption", "result": "rapidly, consistently and completely absorbed"}
    ]}
  ]
}
